Data published in US20110306554A1, “PEPTIDE CAPABLE OF BINDING TO IMMUNOGLOBULIN” (priority 2009, published 2011).
Blank lines part the entries; values can stand above or below the compound they belong to. Non-standard residues stand in square brackets, D forms with d. Residues, ends and D or L forms follow the SMILES beside them. No end group written: not given here.

Experiments:
[1] = test system: rat collagen-arthritis model; test: Arthritis suppressing effects on rat collagen-arthritis model; format: in vivo, rats
Procedure: A rat collagen-arthritis model was used to examine arthritis suppressing effects of a peptide, referred to as peptide R13.
Female Lewis rats were primed with 500 μg of type II bovine-derived collagen and boosted with 100 μg of the same collagen at 7 and 14 days post priming, to induce collagen arthritis. Peptide R13, a scramble peptide (dYdPdYGdFdL), or methotrexate was administered once a day for a period of 25 consecutive days from 12 days after arthritis was fully developed, and arthritis suppressing effect was examined in terms of clinical score. Methotrexate was administered at a dose of 0.15 mg/kg as a control drug.
The required amount was calculated for each peptide, based on the animal weight. Physiological saline was gradually added to prepare suspensions, to make concentrations of 100 and 10 mg/ml.
The clinical score of each limb of the extremities in all cases was observed every third day from day 12, on which arthritis was developed, up to day 36, with day 0 being the day of priming with type II bovine-derived collagen. Observations were according to the following criteria, with the total score for the extremities being set to a maximum of 12. […]

[2] = test system: binding between human C1q protein and human immunoglobulin (IgG); test: Inhibition of binding between C1q and immunoglobulin (C1q spotted on nitrocellulose membrane, ALP-labeled IgG); details: peptide concentration 500 μg/ml, 400 ng human C1q per spot
Text: Peptides were synthesized by GL Biochem (Shanghai), which have the following amino acid sequences: the amino acid sequence depicted in SEQ ID NO: 2 (peptide R2); a shorter amino acid sequence than this peptide, PGLYYF (SEQ ID NO: 1) (peptide R1); and amino acid sequences including the amino acid sequence depicted in SEQ ID NO: 2, SGKFTCKVPGLYYFT (SEQ ID NO: 3) (peptide R3), FTCKVPGLYYFTYHA (SEQ ID NO: 4) (peptide R4), STGKFTCKVPGLYYF (SEQ ID NO: 5) (peptide R5), and CKVPGLYYFVYHASH (SEQ ID NO: 7) (peptide R6). Each peptide was dissolved in DMSO to make a concentration of 10 mg/ml and stored.
Human C1q protein (Carbiochem) was dissolved in 10 mM HEPES, 300 mM NaCl, 40% glycerol (pH 7.2) to prepare a 200 μg/ml solution of human C1q protein. The solution of human C1q protein was spotted at a volume of 2 μl (400 ng) per spot onto a nitrocellulose membrane of a size of 5 mm by 15 mm (Hybond C; Amersham), which was then air-dried at room temperature for about one hour. The nitrocellulose membrane was soaked in TBS, incubated for 5 minutes, and blocked at room temperature for one hour using TBS (20 mM Tris-HCl, pH 7.5, 150 mM NaCl) containing 5% of a blocking agent (Amersham ECL blocking reagent; GE Healthcare). […]

[3] = test system: type III allergic (Arthus) reaction-induced rats; test: Immune-complex disease suppression in type III allergic (Arthus) reaction-induced rats, Part 2; format: in vivo
Procedure: Using forty-five 7-week-old male Slc:Wistar rats, examinations were made on peptides R13 and R19, in two series of examinations, each using a different method of administration (intraperitoneal administration and tail vein administration). Acclimation was carried out by giving normal solid chow CRF-1 for a period of 6 or 8 days. The back of the animals was shaved on the day prior to administration, and a mixed solution of OVA and Evans blue dye was administered into the tail vein on the day of administration. Each peptide solution was administered intraperitoneally or into the tail vein 30 minutes or 50 minutes after the administration of the mixed solution of OVA and Evans blue dye, respectively. For intracutaneous administration of an anti-OVA solution, […] was intracutaneously administered in the back of animals at a dose of 0.1 ml/site 30 minutes or 10 minutes after the administration of the tested substance in the case of intraperitoneal or intravenous administration, respectively, so as to generate a local Arthus reaction. After the reaction was allowed to be generated for 4 hours, the animals were euthanized, the blood was removed thoroughly, and then the dorsal skin was exfoliated. The Arthus reaction sites on the exfoliated skin were punched out, and the Evans blue dye was extracted from the punched skin overnight. The amount of dye leakage was quantified by measuring absorbance for the Evans blue dye with a spectrophotometer and using a calibration curve.
A suspension was prepared by placing a predetermined amount of hydrocortisone into a mortar, grinding it with pestle, and then adding physiological saline to make the final concentration of 10 mg/ml.
A predetermined amount of each peptide (peptides R13 and R19) was dissolved in physiological saline to make a 20 mg/ml solution. A 2 mg/ml solution was prepared by diluting the 20 mg/ml solution 10-fold with physiological saline. A 5 mg/ml solution was prepared by dissolving each peptide in a predetermined amount in physiological saline to make a prepared solution.
A mixed solution of OVA and Evans blue dye was administered into the tail vein at a dose of 2 ml/kg. Each peptide solution was administered intraperitoneally or into the tail vein 30 minutes or 50 minutes after the administration of the mixed solution of OVA and Evans blue dye, respectively. […]
Several cuttings were made in the skin strips that were punched out with a punch. […] The amount of dye leakage was calculated from a calibration curve of known amounts of the dye.
The mean value (mean)±standard deviation (SD) for each group was calculated with body-weight measurements and amounts of dye leakage. […]

[4] = test system: Monoclonal antibody cocktail-induced arthritis mice; test: Arthritis suppressing effects on arthritis-induced mice, Part 4; format: in vivo; details: intraperitoneal 100 mg/kg once a day from day 4; methotrexate 0.1 mg/kg
Procedure: Monoclonal antibody cocktail-induced arthritis mice were used to examine arthritis suppressing effects of peptides which are indicated as R13 in the section (3) in Example 2 and as R19 and R21 in the section (4) in Example 2. Arthritis was caused by intravenous administration of 2 mg/mouse of an arthritis-inducing monoclonal antibody cocktail and three days later, intraperitoneal administration of 50 μg/mouse of LPS. The peptides […] days from four days after the administration of the arthritis-inducing monoclonal antibody cocktail, and arthritis suppressing effect was examined in terms of clinical score and hind-limb volume determination.
The required amount was calculated for each peptide, based on the animal weight. […]
Measurement of body weight of animals was made on days 0, 3, 6, 9, 12, and 14 during the study period, with day 0 being the day of administration of the arthritis-inducing monoclonal antibody cocktail. Observation of general condition was made on a daily basis. […]
Results of examinations were expressed by mean value±standard error and analyzed using EXSAS (Version 7.1.6, Arm Systex Co., Ltd.). […] Quantitative data, such as body weights and leg volumes, were subjected to Bartlett's test, followed by Dunnett's multiple comparison test when the variance was uniform or Steel's multiple comparison test when the variance was not uniform.

[5] = tail vein administration, 10 mg/kg

Compound: CC(C)C[C@@H](NC(=O)CNC(=O)[C@H]1CCCN1)C(=O)N[C@H](Cc1ccc(O)cc1)C(=O)N[C@H](Cc1ccc(O)cc1)C(=O)N[C@H](Cc1ccccc1)C(=O)O [R13, dPGdLdYdYdF] (H-[dP]G[dL][dY][dY][dF]-OH)
abnormalities in general condition and effects on body weight ([1]; 100 and 10 mg/kg): abnormalities in general condition and effects on body weight were not observed

inhibition of the binding between C1q and immunoglobulin [2]: inhibit the binding
Compound: STAKFTCKVPGLYYF (Immunoglobulin binding peptide) [R11]

inhibition of the binding between C1q and immunoglobulin [2]: inhibit the binding
Compound: CKAPGLYYF (Immunoglobulin binding peptide) [R10]

Compound: dSdKdVdPGdLdYdYdF ([dS][dK][dV][dP]G[dL][dY][dY][dF]) [R19]
suppression (decrease of dye leakage) compared to negative control ([3]; intraperitoneal administration, 100 mg/kg): 50% | suppression effect (dye leakage) compared to negative control ([3]; intraperitoneal administration, 10 or 100 mg/kg): suppressed | suppression (decrease of dye leakage) compared to negative control [3, 5]: about 50% | suppression effect (dye leakage) compared to negative control [3, 5]: suppressed | arthritis-suppressing effect (clinical score) compared with methotrexate [4]: arthritis-suppressing effect comparable to or greater than that of methotrexate

Compound: dYdPdYGdFdL [scramble peptide, reference compound]
suppression effect (clinical score) ([1]; negative control peptide, once a day, 25 consecutive days): did not exhibit any suppression effects
